pIC50: −log10 of the molar value.
Molecular target: PIK3CD (Human) (UniProt O00329)
Assay: Cell-Based Assay
Conditions: u937

Sequence of PIK3CD (Human) (O00329 whole entry, looked up): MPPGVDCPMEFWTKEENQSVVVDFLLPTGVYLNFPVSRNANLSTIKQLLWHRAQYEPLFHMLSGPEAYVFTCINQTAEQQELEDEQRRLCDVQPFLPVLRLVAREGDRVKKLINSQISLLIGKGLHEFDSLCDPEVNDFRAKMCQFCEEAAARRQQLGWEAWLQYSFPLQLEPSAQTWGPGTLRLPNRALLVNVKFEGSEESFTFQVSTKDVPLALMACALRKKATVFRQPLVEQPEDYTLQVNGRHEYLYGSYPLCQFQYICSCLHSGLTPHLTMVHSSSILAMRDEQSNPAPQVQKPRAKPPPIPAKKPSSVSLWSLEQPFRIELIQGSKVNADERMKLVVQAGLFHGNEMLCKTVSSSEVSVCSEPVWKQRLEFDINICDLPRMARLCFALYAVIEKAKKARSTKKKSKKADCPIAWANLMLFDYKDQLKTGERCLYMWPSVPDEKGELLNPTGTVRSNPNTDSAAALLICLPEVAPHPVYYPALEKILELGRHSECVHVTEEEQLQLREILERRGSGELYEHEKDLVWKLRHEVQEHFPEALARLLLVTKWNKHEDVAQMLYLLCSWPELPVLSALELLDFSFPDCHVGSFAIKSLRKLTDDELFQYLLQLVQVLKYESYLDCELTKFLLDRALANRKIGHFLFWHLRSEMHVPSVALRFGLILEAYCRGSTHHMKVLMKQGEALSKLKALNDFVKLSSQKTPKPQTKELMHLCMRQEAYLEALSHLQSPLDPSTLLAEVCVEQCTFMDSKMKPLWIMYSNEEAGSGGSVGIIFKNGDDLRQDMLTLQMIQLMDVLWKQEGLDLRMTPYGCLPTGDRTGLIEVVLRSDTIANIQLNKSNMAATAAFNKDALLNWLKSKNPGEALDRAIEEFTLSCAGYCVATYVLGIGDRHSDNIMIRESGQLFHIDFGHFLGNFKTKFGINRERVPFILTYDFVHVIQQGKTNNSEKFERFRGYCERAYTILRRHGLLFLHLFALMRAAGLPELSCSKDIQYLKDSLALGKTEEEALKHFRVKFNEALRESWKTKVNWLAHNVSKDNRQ

Row | SMILES | pIC50
1 | COCCOCCOCC#Cc1cccc2nc(Cn3nc(-c4cccc(O)c4)c4c(N)ncnc43)n(Cc3ccccc3F)c(=O)c12 | > 8.00
2 | C#Cc1cccc2nc(Cn3nc(-c4ccc(O)cc4)c4c(N)ncnc43)n(Cc3ccc(Cl)cc3F)c(=O)c12 | > 8.00
3 | C#Cc1cccc2nc(Cn3nc(-c4ccc(O)cc4)c4c(N)ncnc43)n(Cc3ccc(OC)cc3F)c(=O)c12 | > 8.00
4 | C#Cc1cccc2nc(Cn3nc(-c4cccc(O)c4)c4c(N)ncnc43)n(Cc3ccccc3F)c(=O)c12 | > 8.00
5 | C#Cc1cccc2nc(Cn3nc(-c4ccc(O)cc4)c4c(N)ncnc43)n(Cc3ccc(S(C)(=O)=O)cc3)c(=O)c12 | > 8.00
6 | COc1cc(Cn2c(Cn3nc(-c4ccc(O)cc4)c4c(N)ncnc43)nc3cccc(C#CCCCC(=O)N4CCOCC4)c3c2=O)cc(C(F)(F)F)c1 | > 8.00
7 | C#Cc1cccc2nc(Cn3nc(-c4ccc(O)cc4)c4c(N)ncnc43)n(Cc3ccccc3F)c(=O)c12 | > 8.00
8 | C#Cc1cccc2nc(Cn3nc(-c4cccc(O)c4)c4c(N)ncnc43)n(Cc3cccc(C#N)c3)c(=O)c12 | > 8.00
9 | CN1CCCN(C(=O)CCCC#Cc2cccc3nc(Cn4nc(-c5cccc(O)c5)c5c(N)ncnc54)n(Cc4ccccc4Cl)c(=O)c23)CC1 | 6.00 to 8.00
10 | Nc1ncnc2c1c(-c1ccc(O)cc1)nn2Cc1nc2cccc(C#CCCCC(=O)N3CCCCC3)c2c(=O)n1Cc1ccccc1Cl | > 8.00
11 | C#Cc1cccc2nc(Cn3nc(-c4ccc(O)cc4)c4c(N)ncnc43)n(Cc3ccccc3Cl)c(=O)c12 | > 8.00
12 | C#Cc1cccc2nc(Cn3nc(-c4ccc(O)cc4)c4c(N)ncnc43)n(Cc3ccc(C(F)(F)F)cc3)c(=O)c12 | > 8.00
13 | Nc1ncnc2c1c(-c1ccc(O)cc1)nn2Cc1nc2cccc(C#CCC3CCCC3)c2c(=O)n1Cc1ccccc1Cl | > 8.00
14 | C#Cc1cccc2nc(Cn3nc(-c4ccc(O)cc4)c4c(N)ncnc43)n(Cc3c(F)cccc3F)c(=O)c12 | > 8.00
15 | C#Cc1cccc2nc(Cn3nc(-c4ccc(O)cc4)c4c(N)ncnc43)n(Cc3cccc(OC)c3)c(=O)c12 | > 8.00
16 | COCCN(CCOC)C(=O)CCCC#Cc1cccc2nc(Cn3nc(-c4ccc(O)cc4)c4c(N)ncnc43)n(Cc3ccccc3Cl)c(=O)c12 | > 8.00
17 | CN(C)CCNC(=O)CCCC#Cc1cccc2nc(Cn3nc(-c4ccc(O)cc4)c4c(N)ncnc43)n(Cc3ccccc3Cl)c(=O)c12 | > 8.00
18 | C#Cc1cccc2nc(Cn3nc(-c4ccc(O)cc4)c4c(N)ncnc43)n(Cc3ccc(Cl)c(Cl)c3)c(=O)c12 | > 8.00
19 | C#Cc1cccc2nc(Cn3nc(-c4cccc(O)c4)c4c(N)ncnc43)n(Cc3ccc(Cl)cc3)c(=O)c12 | > 8.00
20 | C#Cc1cccc2nc(Cn3nc(-c4ccc(O)cc4)c4c(N)ncnc43)n(Cc3ccc(C#N)cc3)c(=O)c12 | > 8.00
21 | C#Cc1cccc2nc(Cn3nc(-c4ccc(O)cc4)c4c(N)ncnc43)n(Cc3cccc(C(F)(F)F)c3)c(=O)c12 | > 8.00
22 | Nc1ncnc2c1c(-c1ccc(O)cc1)nn2Cc1nc2cccc(C#CCCCC(=O)Nc3ccncc3)c2c(=O)n1Cc1ccccc1Cl | > 8.00
23 | Nc1ncnc2c1c(-c1ccc(O)cc1)nn2Cc1nc2cccc(C#CCCCC(=O)N3CCOCC3)c2c(=O)n1Cc1cc2ccccc2s1 | > 8.00
24 | Nc1ncnc2c1c(-c1cccc(O)c1)nn2Cc1nc2cccc(C#CCCCC(=O)N3CCOCC3)c2c(=O)n1Cc1ccccc1Cl | > 8.00
25 | Nc1ncnc2c1c(-c1ccc(O)cc1)nn2Cc1nc2cccc(C#CCCCO)c2c(=O)n1Cc1ccccc1Cl | > 8.00

Row | SMILES | pIC50
26 | CN1CCN(C(=O)CCCC#Cc2cccc3nc(Cn4nc(-c5cccc(O)c5)c5c(N)ncnc54)n(Cc4ccccc4Cl)c(=O)c23)CC1 | > 8.00
27 | C#Cc1cccc2nc(Cn3nc(-c4cccc(O)c4)c4c(N)ncnc43)n(Cc3ccc(C(F)(F)F)cc3)c(=O)c12 | > 8.00
28 | C#Cc1cccc2nc(Cn3nc(-c4cccc(O)c4)c4c(N)ncnc43)n(Cc3cc(C)on3)c(=O)c12 | > 8.00
29 | Nc1ncnc2c1c(-c1ccc(O)cc1)nn2Cc1nc2cccc(C#CCOCc3ccccc3)c2c(=O)n1Cc1ccccc1Cl | > 8.00
30 | N#Cc1cccc(Cn2c(Cn3nc(-c4cccc(O)c4)c4c(N)ncnc43)nc3cccc(C#CCOCCOCCO)c3c2=O)c1 | > 8.00
31 | COC(=O)c1cccc(Cn2c(Cn3nc(-c4cccc(O)c4)c4c(N)ncnc43)nc3cccc(C#CCCCC(=O)N4CCOCC4)c3c2=O)c1 | > 8.00
32 | Nc1ncnc2c1c(-c1cccc(O)c1)nn2Cc1nc2cccc(C#CCCCCC(=O)N3CCOCC3)c2c(=O)n1Cc1ccccc1Cl | > 8.00
33 | CN1CCN(CCN(C)C(=O)CCCC#Cc2cccc3nc(Cn4nc(-c5ccc(O)cc5)c5c(N)ncnc54)n(Cc4ccccc4Cl)c(=O)c23)CC1 | > 8.00
34 | Cc1nc(Cn2c(Cn3nc(-c4cccc(O)c4)c4c(N)ncnc43)nc3cccc(C#CCCCC(=O)N4CCOCC4)c3c2=O)cs1 | > 8.00
35 | C#Cc1cccc2nc(Cn3nc(-c4ccc(F)c(O)c4)c4c(N)ncnc43)n(Cc3ccccc3Cl)c(=O)c12 | > 8.00
36 | C#Cc1cccc2nc(Cn3nc(-c4cccc(O)c4)c4c(N)ncnc43)n(Cc3ccc(S(C)(=O)=O)cc3)c(=O)c12 | > 8.00
37 | COCCNC(=O)CCCC#Cc1cccc2nc(Cn3nc(-c4cccc(O)c4)c4c(N)ncnc43)n(Cc3ccccc3Cl)c(=O)c12 | > 8.00
38 | CC(=O)N1CCN(C(=O)CCCC#Cc2cccc3nc(Cn4nc(-c5ccc(O)cc5)c5c(N)ncnc54)n(Cc4ccccc4Cl)c(=O)c23)CC1 | > 8.00
39 | C#Cc1cccc2nc(Cn3nc(-c4ccc(O)cc4)c4c(N)ncnc43)n(Cc3ccccc3)c(=O)c12 | > 8.00
40 | CN(C)C1CCN(C(=O)CCCC#Cc2cccc3nc(Cn4nc(-c5ccc(O)cc5)c5c(N)ncnc54)n(Cc4ccccc4Cl)c(=O)c23)C1 (stereo not drawn) | > 8.00
41 | CN(C)C1CCN(C(=O)CCCC#Cc2cccc3nc(Cn4nc(-c5ccc(O)cc5)c5c(N)ncnc54)n(Cc4ccccc4Cl)c(=O)c23)CC1 | > 8.00
42 | Nc1ncnc2c1c(-c1cccc(O)c1)nn2Cc1nc2cccc(C#CCOCCN3CCOCC3)c2c(=O)n1Cc1ccccc1Cl | > 8.00
43 | C#Cc1cccc2nc(Cn3nc(-c4ccc(O)c(F)c4)c4c(N)ncnc43)n(Cc3ccccc3Cl)c(=O)c12 | > 8.00
44 | COCC#Cc1cccc2nc(Cn3nc(-c4ccc(O)cc4)c4c(N)ncnc43)n(Cc3cccc(OC)c3)c(=O)c12 | > 8.00
45 | C#Cc1cccc2nc(Cn3nc(-c4ccc(O)cc4)c4c(N)ncnc43)n(Cc3ccc(F)cc3)c(=O)c12 | > 8.00
46 | Nc1ncnc2c1c(-c1ccc(O)cc1)nn2Cc1nc2cccc(C#CCCCC(=O)NCCN3CCOCC3)c2c(=O)n1Cc1ccccc1Cl | > 8.00
47 | Nc1ncnc2c1c(-c1ccc(O)cc1)nn2Cc1nc2cccc(C#CCCCC(=O)NC3CCOCC3)c2c(=O)n1Cc1ccccc1Cl | > 8.00
48 | COCC#Cc1cccc2nc(Cn3nc(-c4cccc(O)c4)c4c(N)ncnc43)n(Cc3ccc(Cl)cc3)c(=O)c12 | > 8.00
49 | CC(C)NC(=O)CCCC#Cc1cccc2nc(Cn3nc(-c4cccc(O)c4)c4c(N)ncnc43)n(Cc3ccccc3Cl)c(=O)c12 | > 8.00
50 | CN(C)C1CCN(C(=O)CCCC#Cc2cccc3nc(Cn4nc(-c5cccc(O)c5)c5c(N)ncnc54)n(Cc4ccccc4Cl)c(=O)c23)C1 (stereo not drawn) | 6.00 to 8.00

Row | SMILES | pIC50
51 | C#Cc1cccc2nc(Cn3nc(-c4ccc(O)cc4)c4c(N)ncnc43)n(Cc3ccc(OC)cc3)c(=O)c12 | > 8.00
52 | C#Cc1cccc2nc(Cn3nc(-c4ccc(O)cc4)c4c(N)ncnc43)n(Cc3cc(OC)ccc3F)c(=O)c12 | > 8.00
53 | Nc1ncnc2c1c(-c1cccc(O)c1)nn2Cc1nc2cccc(C#CCCCC(=O)N3CCC(N4CCOCC4)CC3)c2c(=O)n1Cc1ccccc1Cl | > 8.00
54 | COCC#Cc1cccc2nc(Cn3nc(-c4ccc(O)cc4)c4c(N)ncnc43)n(Cc3ccccc3Cl)c(=O)c12 | > 8.00
55 | CN(C)C(=O)CCCC#Cc1cccc2nc(Cn3nc(-c4ccc(O)cc4)c4c(N)ncnc43)n(Cc3ccccc3Cl)c(=O)c12 | > 8.00
56 | Nc1ncnc2c1c(-c1ccc(O)cc1)nn2Cc1nc2cccc(C#CCCCC(=O)N3CCOCC3)c2c(=O)n1Cc1ccccc1F | > 8.00
57 | Nc1ncnc2c1c(-c1cccc(O)c1)nn2Cc1nc2cccc(C#CCCNC(=O)N3CCOCC3)c2c(=O)n1Cc1ccccc1Cl | > 8.00
58 | COc1cc(-c2nn(Cc3nc4cccc(C#CCCCC(=O)N5CCOCC5)c4c(=O)n3Cc3ccccc3Cl)c3ncnc(N)c23)ccc1O | > 8.00
59 | C#Cc1cccc2nc(Cn3nc(-c4cccc(O)c4)c4c(N)ncnc43)n(Cc3cccc(S(C)(=O)=O)c3)c(=O)c12 | > 8.00
60 | C#Cc1cccc2nc(Cn3nc(-c4ccc(O)cc4)c4c(N)ncnc43)n(Cc3cccc(Cl)c3)c(=O)c12 | > 8.00
61 | Nc1ncnc2c1c(-c1cccc(O)c1)nn2Cc1nc2cccc(C#CCCCC(=O)Nc3ccncc3)c2c(=O)n1Cc1ccccc1Cl | 6.00 to 8.00
62 | COc1cccc(Cn2c(Cn3nc(-c4ccc(O)cc4)c4c(N)ncnc43)nc3cccc(C#CCCCC(=O)N4CCOCC4)c3c2=O)c1F | > 8.00
63 | C#Cc1cccc2nc(Cn3nc(-c4cccc(O)c4)c4c(N)ncnc43)n(Cc3cccc(C(F)(F)F)c3)c(=O)c12 | > 8.00
64 | CN1CCN(CCNC(=O)CCCC#Cc2cccc3nc(Cn4nc(-c5ccc(O)cc5)c5c(N)ncnc54)n(Cc4ccccc4Cl)c(=O)c23)CC1 | > 8.00
65 | COCCN(CCCC#Cc1cccc2nc(Cn3nc(-c4ccc(O)cc4)c4c(N)ncnc43)n(Cc3ccccc3Cl)c(=O)c12)CCOC | > 8.00
66 | NC(=O)NCC#Cc1cccc2nc(Cn3nc(-c4ccc(O)cc4)c4c(N)ncnc43)n(Cc3ccccc3Cl)c(=O)c12 | > 8.00
67 | C#Cc1cccc2nc(Cn3nc(-c4ccc(O)cc4)c4c(N)ncnc43)n(Cc3cc(C)on3)c(=O)c12 | > 8.00
68 | Nc1ncnc2c1c(-c1cccc(O)c1)nn2Cc1nc2cccc(C#CCCC(=O)N3CCOCC3)c2c(=O)n1Cc1ccccc1Cl | > 8.00
69 | C#Cc1cccc2nc(Cn3nc(-c4cccc(O)c4)c4c(N)ncnc43)n(Cc3cccc(Cl)c3)c(=O)c12 | > 8.00
70 | COCCN1CCN(C(=O)CCCC#Cc2cccc3nc(Cn4nc(-c5ccc(O)cc5)c5c(N)ncnc54)n(Cc4ccccc4Cl)c(=O)c23)CC1 | > 8.00
71 | C#Cc1cccc2nc(Cn3nc(-c4ccc(O)cc4)c4c(N)ncnc43)n(Cc3ccccc3C(F)(F)F)c(=O)c12 | > 8.00
72 | Nc1ncnc2c1c(-c1ccc(O)cc1)nn2Cc1nc2cccc(C#CCCCNC3CCCC3)c2c(=O)n1Cc1ccccc1Cl | > 8.00
73 | Nc1ncnc2c1c(-c1cccc(O)c1)nn2Cc1nc2cccc(C#CCCCCC(=O)O)c2c(=O)n1Cc1ccccc1Cl | > 8.00
